Where “and” joins values, the source holds several entries; their conditions need not be identical. Identical values can stand only once. Like-named read-outs stand apart in the source and are kept apart here.
What was measured:
[1] = molecular target: Human mTOR (FLAG-TOR) (Homo sapiens, UniProt P42345); test: mTOR kinase assay (DELFIA format, purified enzyme); format: biochemical; details: read-out: IC50 mTOR
[2] = test system: human breast MDA-MB-361 tumor cell line; test: In vitro cell culture growth assay (MTS), MDA-MB-361; format: cell-based; details: Homo sapiens, MTS cell growth assay, three days after drug treatment, read-out: IC50 MDA-MB-361
[3] = test system: human prostate PC3-mm2 tumor cell line; test: In vitro cell culture growth assay (MTS), PC3-mm2; format: cell-based; details: Homo sapiens, PC3MM2, 72 h, MTS cell growth assay, three days after drug treatment, read-out: IC50 PC3-mm2
[4] = molecular target: PI3K-α (Homo sapiens, UniProt P42336); test: PI3K-alpha fluorescence polarization assay; details: read-out: IC50 PI3Kα
PI3K-α, sequence (P42336 whole entry, species assumed): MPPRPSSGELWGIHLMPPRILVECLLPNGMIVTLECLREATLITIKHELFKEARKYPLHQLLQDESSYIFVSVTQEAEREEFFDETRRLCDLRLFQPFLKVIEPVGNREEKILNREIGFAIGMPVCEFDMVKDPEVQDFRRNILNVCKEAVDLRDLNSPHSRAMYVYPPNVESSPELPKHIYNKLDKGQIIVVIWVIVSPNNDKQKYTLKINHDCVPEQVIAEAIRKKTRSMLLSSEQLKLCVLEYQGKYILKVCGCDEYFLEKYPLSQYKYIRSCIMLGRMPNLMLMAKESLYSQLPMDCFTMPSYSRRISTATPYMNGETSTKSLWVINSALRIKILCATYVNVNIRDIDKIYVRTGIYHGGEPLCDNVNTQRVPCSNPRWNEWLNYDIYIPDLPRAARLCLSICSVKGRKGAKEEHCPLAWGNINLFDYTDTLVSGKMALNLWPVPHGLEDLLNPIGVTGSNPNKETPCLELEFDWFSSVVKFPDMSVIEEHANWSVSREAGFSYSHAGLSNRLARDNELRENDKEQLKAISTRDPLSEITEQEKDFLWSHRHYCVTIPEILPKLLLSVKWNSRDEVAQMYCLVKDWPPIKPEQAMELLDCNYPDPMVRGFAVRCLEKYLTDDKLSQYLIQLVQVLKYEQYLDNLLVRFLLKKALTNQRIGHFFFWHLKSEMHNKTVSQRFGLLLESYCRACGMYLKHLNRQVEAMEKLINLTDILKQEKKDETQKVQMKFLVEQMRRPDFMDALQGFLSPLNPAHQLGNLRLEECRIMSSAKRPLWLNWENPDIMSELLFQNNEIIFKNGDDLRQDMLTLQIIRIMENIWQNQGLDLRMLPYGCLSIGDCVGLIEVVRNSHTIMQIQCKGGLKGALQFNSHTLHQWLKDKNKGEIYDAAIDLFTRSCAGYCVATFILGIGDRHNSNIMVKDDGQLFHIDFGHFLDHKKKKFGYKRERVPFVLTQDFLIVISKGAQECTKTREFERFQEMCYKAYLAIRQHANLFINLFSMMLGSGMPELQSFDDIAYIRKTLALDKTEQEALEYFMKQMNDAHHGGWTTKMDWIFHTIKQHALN
PI3K-α, sequence (P27986 whole entry partner, species assumed): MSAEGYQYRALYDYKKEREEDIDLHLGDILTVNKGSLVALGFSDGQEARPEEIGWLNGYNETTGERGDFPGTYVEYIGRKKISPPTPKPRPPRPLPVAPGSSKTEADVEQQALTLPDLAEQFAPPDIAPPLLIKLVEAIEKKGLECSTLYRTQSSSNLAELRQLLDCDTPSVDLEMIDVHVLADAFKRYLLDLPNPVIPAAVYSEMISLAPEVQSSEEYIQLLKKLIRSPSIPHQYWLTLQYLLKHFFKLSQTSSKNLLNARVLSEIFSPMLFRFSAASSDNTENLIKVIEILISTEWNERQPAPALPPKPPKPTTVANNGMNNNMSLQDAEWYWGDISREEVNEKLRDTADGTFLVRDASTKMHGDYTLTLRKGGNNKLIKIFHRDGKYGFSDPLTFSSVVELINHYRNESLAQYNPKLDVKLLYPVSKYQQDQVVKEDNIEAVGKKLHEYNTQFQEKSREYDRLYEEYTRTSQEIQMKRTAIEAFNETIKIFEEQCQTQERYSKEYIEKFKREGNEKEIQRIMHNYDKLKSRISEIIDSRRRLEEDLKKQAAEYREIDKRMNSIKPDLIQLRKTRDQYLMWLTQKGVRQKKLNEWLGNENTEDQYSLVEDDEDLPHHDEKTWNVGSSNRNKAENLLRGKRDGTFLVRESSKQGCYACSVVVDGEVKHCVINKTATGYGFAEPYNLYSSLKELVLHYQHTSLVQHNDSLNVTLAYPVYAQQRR

[5] = molecular target: PI3K-γ (Homo sapiens, UniProt P48736); test: PI3K-gamma fluorescence polarization assay; details: read-out: IC50 PI3Kγ
PI3K-γ, sequence (P48736 whole entry, species assumed): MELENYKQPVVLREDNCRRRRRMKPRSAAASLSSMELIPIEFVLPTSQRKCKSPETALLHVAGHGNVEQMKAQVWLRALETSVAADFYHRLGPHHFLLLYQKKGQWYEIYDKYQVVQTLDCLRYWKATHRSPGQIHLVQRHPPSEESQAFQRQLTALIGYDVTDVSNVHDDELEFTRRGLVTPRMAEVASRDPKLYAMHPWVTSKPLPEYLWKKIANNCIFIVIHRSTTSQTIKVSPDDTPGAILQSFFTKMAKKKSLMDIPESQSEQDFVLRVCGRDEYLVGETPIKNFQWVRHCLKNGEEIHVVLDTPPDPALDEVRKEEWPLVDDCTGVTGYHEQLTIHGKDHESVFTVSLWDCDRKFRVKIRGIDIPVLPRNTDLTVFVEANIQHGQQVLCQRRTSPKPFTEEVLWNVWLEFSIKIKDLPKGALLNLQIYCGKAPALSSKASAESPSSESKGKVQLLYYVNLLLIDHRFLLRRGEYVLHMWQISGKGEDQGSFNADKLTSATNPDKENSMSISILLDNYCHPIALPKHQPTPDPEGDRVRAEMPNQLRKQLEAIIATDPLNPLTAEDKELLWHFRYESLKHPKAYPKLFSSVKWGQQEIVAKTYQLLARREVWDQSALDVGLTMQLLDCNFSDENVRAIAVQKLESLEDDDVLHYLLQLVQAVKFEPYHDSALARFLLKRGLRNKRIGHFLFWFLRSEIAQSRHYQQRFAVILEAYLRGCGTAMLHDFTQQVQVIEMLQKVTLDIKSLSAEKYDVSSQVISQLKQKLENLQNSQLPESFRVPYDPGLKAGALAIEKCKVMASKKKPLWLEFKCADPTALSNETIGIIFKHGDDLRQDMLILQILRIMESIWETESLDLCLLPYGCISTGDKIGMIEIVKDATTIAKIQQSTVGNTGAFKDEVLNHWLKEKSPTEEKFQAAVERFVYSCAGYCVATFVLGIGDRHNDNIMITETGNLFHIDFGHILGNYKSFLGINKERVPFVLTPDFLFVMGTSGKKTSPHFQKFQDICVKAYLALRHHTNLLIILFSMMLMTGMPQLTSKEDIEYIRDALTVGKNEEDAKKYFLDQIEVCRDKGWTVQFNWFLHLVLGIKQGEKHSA

[6] = MDA-MB-361, 72 h, MDA-MB-361 cells

Human mTOR (FLAG-TOR), sequence (P42345 1360-2549 limits assumed): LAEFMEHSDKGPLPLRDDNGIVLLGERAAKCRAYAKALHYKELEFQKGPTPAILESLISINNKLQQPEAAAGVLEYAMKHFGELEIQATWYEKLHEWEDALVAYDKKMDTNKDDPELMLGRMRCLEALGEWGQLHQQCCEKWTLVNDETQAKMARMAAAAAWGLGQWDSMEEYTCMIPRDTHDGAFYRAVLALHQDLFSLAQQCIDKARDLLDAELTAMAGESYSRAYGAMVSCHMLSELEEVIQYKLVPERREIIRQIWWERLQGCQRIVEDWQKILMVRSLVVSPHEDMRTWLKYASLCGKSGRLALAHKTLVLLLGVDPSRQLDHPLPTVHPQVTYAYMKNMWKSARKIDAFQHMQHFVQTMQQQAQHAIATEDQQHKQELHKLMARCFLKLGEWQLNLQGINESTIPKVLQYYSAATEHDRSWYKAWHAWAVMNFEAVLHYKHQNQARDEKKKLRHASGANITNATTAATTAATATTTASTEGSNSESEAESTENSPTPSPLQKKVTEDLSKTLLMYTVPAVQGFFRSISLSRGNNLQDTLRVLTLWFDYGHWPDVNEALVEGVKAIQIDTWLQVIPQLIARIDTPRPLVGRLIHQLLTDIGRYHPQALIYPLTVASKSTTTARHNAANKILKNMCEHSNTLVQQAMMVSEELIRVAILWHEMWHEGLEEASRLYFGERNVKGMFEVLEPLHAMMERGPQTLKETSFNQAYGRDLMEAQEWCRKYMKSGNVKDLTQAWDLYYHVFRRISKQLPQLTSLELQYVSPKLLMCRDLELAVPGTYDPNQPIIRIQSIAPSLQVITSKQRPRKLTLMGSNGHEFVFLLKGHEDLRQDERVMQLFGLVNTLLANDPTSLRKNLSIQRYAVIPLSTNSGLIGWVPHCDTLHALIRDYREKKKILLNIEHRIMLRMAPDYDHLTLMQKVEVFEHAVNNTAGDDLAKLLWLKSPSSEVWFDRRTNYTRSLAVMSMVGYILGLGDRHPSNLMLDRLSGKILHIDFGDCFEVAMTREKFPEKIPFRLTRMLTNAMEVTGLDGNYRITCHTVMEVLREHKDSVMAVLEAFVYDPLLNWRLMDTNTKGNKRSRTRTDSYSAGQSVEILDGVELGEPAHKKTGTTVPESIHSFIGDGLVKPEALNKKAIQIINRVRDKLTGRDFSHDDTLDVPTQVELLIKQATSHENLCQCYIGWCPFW

Work on CC(C)N1CCN(C(=O)c2ccc(NC(=O)Nc3ccc(-c4nc(N5CCOCC5)nc(N5CCOCC5)n4)cc3)cc2)CC1 [Example 515, 1-[4-(4,6-dimorpholin-4-yl-1,3,5-triazin-2-yl)phenyl]-3-(4-{[4-(1-methylethyl)piperazin-1-yl]carbonyl}phenyl)urea] yielded an IC50 [1] of 1.55 nM, an IC50 [2, 6] of 3 nM and an IC50 ([3]; PC3-mm2 cells) of 12 nM. The IC50 [4] was 0.4 nM and the IC50 [5] was 7.6 nM.

In the case of O=C(Nc1ccc(CCO)cc1)Nc1ccc(-c2nc(N3CCOCC3)nc(N3C4CCC3COC4)n2)cc1 [Example 39, 1-[4-(2-hydroxyethyl)phenyl]-3-{4-[4-morpholin-4-yl-6-(3-oxa-8-azabicyclo[3.2.1]oct-8-yl)-1,3,5-triazin-2-yl]phenyl}urea], the IC50 [1] is reported as 0.32 nM and 0.325 nM, the IC50 ([2]; MDA-MB-361, 72 h) is reported as 22 nM and the IC50 ([3]; PC3-mm2 cells) is reported as 30 nM. The IC50 [3] was 30 nM, the IC50 [4] was 14 nM and the IC50 [5] was 75 nM. For the same compound, the IC50 ([5]; listed as 674) was 74.5 nM.

CN(C)CCCNC(=O)c1ccc(NC(=O)Nc2ccc(-c3nc(-c4ccccc4)nc(N4CCOCC4)n3)cc2)cc1 [Example 556, N-[3-(dimethylamino)propyl]-4-({[4-(4-morpholin-4-yl-6-phenyl-1,3,5-triazin-2-yl)phenyl]carbamoyl}amino)benzamide] was tested, and the IC50 [1] was 4.4 nM, the IC50 ([2]; 72 h, MDA-MB-361 cells) was 128 nM and the IC50 ([3]; PC3-mm2 cells) was 379 nM. The IC50 [4] was 8.5 nM and the IC50 [5] was 54 nM.

O=C(Nc1ccc(-c2nc(N3CCOCC3)nc(N3C4CCC3COC4)n2)cc1)Nc1ccc(Cl)nc1 [Example 349, 1-(6-chloropyridin-3-yl)-3-{4-[4-morpholin-4-yl-6-(3-oxa-8-azabicyclo[3.2.1]oct-8-yl)-1,3,5-triazin-2-yl]phenyl}urea] gave an IC50 [1] of 2 nM, an IC50 ([2]; MDA-MB-361, 72 h) of 87 nM and an IC50 ([3]; PC3-mm2 cells) of 81 nM. It also gave an IC50 [3] of 81 nM, an IC50 [4] of 59 nM and an IC50 [5] of 163 nM. It also gave an IC50 ([5]; listed as 749) of 164 nM.

In the case of C=Cc1ccc(NC(=O)Nc2ccc(-c3nc(N4CCOCC4)nc(N4C5CCC4COC5)n3)cc2)cc1 [Example 249, 1-(4-ethenylphenyl)-3-{4-[4-morpholin-4-yl-6-(3-oxa-8-azabicyclo[3.2.1]oct-8-yl)-1,3,5-triazin-2-yl]phenyl}urea], the IC50 [1] is reported as 2 nM and 2.5 nM, the IC50 ([2]; MDA-MB-361, 72 h) is reported as 92 nM and the IC50 ([3]; PC3-mm2 cells) is reported as 142 nM. For the same compound, the IC50 [3] was 142 nM, the IC50 [4] was 25 nM and the IC50 [5] was 216 nM. It also gave an IC50 ([5]; listed as 726) of 216 nM.

Cc1nc(-c2ccc(NC(=O)Nc3ccc(C(=O)N(C)CCN(C)C)cc3)cc2)nc(N2CCOCC2)n1 [Example 165, N-[2-(dimethylamino)ethyl]-N-methyl-4-({[4-(4-methyl-6-morpholin-4-yl-1,3,5-triazin-2-yl)phenyl]carbamoyl}amino)benzamide] showed an IC50 [1] of 28 nM, an IC50 ([2]; MDA-MB-361, 72 h) of 210 nM and an IC50 [3] of 333 nM. For the same compound, the IC50 [4] was 9 nM and the IC50 [5] was 101 nM.

Compound CN(C)c1ccc(NC(=O)Nc2ccc(-c3nc(OC4CCOCC4)nc(N4CCOCC4)n3)cc2)cc1 [Example 66, 1-[4-(dimethylamino)phenyl]-3-{4-[4-morpholin-4-yl-6-(tetrahydro-2H-pyran-4-yloxy)-1,3,5-triazin-2-yl]phenyl}urea] has an IC50 [1] of 1.65 nM, an IC50 ([2]; MDA-MB-361, 72 h) of 59 nM and an IC50 [3] of 66 nM. It also gave an IC50 [4] of 7 nM and an IC50 [5] of 30 nM.

Cc1cc(NC(=O)Nc2ccc(-c3nc(N4CCOCC4)nc(N4CCOCC4)n3)cc2)ccn1 [Example 49, 1-[4-(4,6-dimorpholin-4-yl-1,3,5-triazin-2-yl)phenyl]-3-(2-methylpyridin-4-yl)urea] was tested, and the IC50 [1] was 10 nM and 8.9 nM, the IC50 ([2]; MDA-MB-361, 72 h) was 84 nM and the IC50 [3] was 79 nM. For the same compound, the IC50 [4] was 3 nM and the IC50 [5] was 21 nM.

For CC(C)c1nc(-c2ccc(NC(=O)Nc3ccc(C(=O)Nc4ccncc4)cc3)cc2)nc(N2CCOCC2)n1 [Example 309, 4-[({4-[4-(1-methylethyl)-6-morpholin-4-yl-1,3,5-triazin-2-yl]phenyl}carbamoyl)amino]-N-pyridin-4-ylbenzamide], the IC50 [1] was 3.5 nM, the IC50 ([2]; MDA-MB-361, 72 h) was 64 nM and the IC50 [3] was 109 nM. It also gave an IC50 [4] of 12 nM and an IC50 [5] of 95 nM.

In the case of C[C@H]1COCCN1c1nc(-c2ccc(NC(=O)Nc3ccc(C(=O)N4CCN(C)CC4)cc3)cc2)nc(N2CCOC[C@@H]2C)n1 [Example 565, 1-(4-{4,6-bis[(3S)-3-methylmorpholin-4-yl]-1,3,5-triazin-2-yl}phenyl)-3-{4-[(4-methylpiperazin-1-yl)carbonyl]phenyl}urea], the IC50 [1] is reported as 1 nM, the IC50 ([2]; 72 h, MDA-MB-361 cells) is reported as 9 nM and the IC50 ([3]; PC3-mm2 cells) is reported as 27 nM. For the same compound, the IC50 [4] was 4.1 nM and the IC50 [5] was 38 nM.

COC(=O)c1ccc(NC(=O)Nc2ccc(-c3nc(N4CCOC[C@@H]4C)nc(N4CCOC[C@@H]4C)n3)cc2)cc1 [Example 540, methyl 4-{[(4-{4,6-bis[(3S)-3-methylmorpholin-4-yl]-1,3,5-triazin-2-yl}phenyl)carbamoyl]amino}benzoate] was tested, and the IC50 [1] was 0.0034 nM, the IC50 ([2]; 72 h, MDA-MB-361 cells) was 165 nM and the IC50 ([3]; PC3-mm2 cells) was 309 nM. The IC50 [4] was 54 nM and the IC50 [5] was 121 nM.

In the case of CCC(C)N1CCN(C(=O)c2ccc(NC(=O)Nc3ccc(-c4nc(N5CCOC[C@@H]5C)nc(N5CCOC[C@@H]5C)n4)cc3)cc2)CC1 (stereo partly drawn) [Example 632, 1-(4-{4,6-bis[(3S)-3-methylmorpholin-4-yl]-1,3,5-triazin-2-yl}phenyl)-3-(4-{[4-(1-methylpropyl)piperazin-1-yl]carbonyl}phenyl)urea], the IC50 [1] is reported as 1 nM, the IC50 ([2]; 72 h, MDA-MB-361 cells) is reported as 9 nM and the IC50 ([3]; PC3-mm2 cells) is reported as 38 nM. It also gave an IC50 [4] of 15 nM and an IC50 [5] of 74.5 nM.

Compound CCNC(=O)N1CCC(Oc2nc(-c3ccc(NC(=O)Nc4ccncc4)cc3)nc(N3CCOCC3)n2)CC1 [Example 690, N-ethyl-4-[(4-morpholin-4-yl-6-{4-[(pyridin-4-ylcarbamoyl)amino]phenyl}-1,3,5-triazin-2-yl)oxy]piperidine-1-carboxamide] has an IC50 [1] of 0.525 nM, an IC50 ([2]; 72 h, MDA-MB-361 cells) of 112 nM and an IC50 ([3]; PC3-mm2 cells) of 405 nM. For the same compound, the IC50 [4] was 5 nM and the IC50 [5] was 83.5 nM.

O=C(Nc1ccncc1)Nc1ccc(-c2nc(CCNc3ccncc3)nc(N3CCOCC3)n2)cc1 [Example 228, 1-(4-{4-morpholin-4-yl-6-[2-(pyridin-4-ylamino)ethyl]-1,3,5-triazin-2-yl}phenyl)-3-pyridin-4-ylurea] was tested, and the IC50 [1] was 51 nM and 55 nM, the IC50 ([2]; MDA-MB-361, 72 h) was 3920 nM and the IC50 ([3]; PC3-mm2 cells) was 7170 nM. The IC50 [3] was 7170 nM, the IC50 [4] was 46 nM and the IC50 ([4]; listed as 718) was 40.5 nM. For the same compound, the IC50 [5] was 280 nM and the IC50 ([5]; listed as 718) was 210 nM.

With Nc1nc2cc(-c3nc(N4CCOCC4)nc(N4C5CCC4COC5)n3)ccc2[nH]1 [Example 684, 5-[4-morpholin-4-yl-6-(3-oxa-8-azabicyclo[3.2.1]oct-8-yl)-1,3,5-triazin-2-yl]-1H-benzimidazol-2-amine] the IC50 [1] was 23.5 nM, the IC50 ([2]; 72 h, MDA-MB-361 cells) was 806 nM and the IC50 ([3]; PC3-mm2 cells) was 1020 nM. It also gave an IC50 [4] of 154 nM and an IC50 [5] of 2340 nM.

O=C(Nc1ccc(C(=O)N2CCC(N3CCCC3)CC2)cc1)Nc1ccc(-c2nc(N3CCOCC3)nc(N3C4COCC3COC4)n2)cc1 [Example 776, 1-{4-[4-(3,7-dioxa-9-azabicyclo[3.3.1]non-9-yl)-6-morpholin-4-yl-1,3,5-triazin-2-yl]phenyl}-3-{4-[(4-pyrrolidin-1-ylpiperidin-1-yl)carbonyl]phenyl}urea] was tested, and the IC50 [1] was 0.345 nM, the IC50 [2, 6] was < 3.2 nM and the IC50 ([3]; PC3-mm2 cells) was 6 nM. The IC50 [4] was 3 nM and the IC50 [5] was 29.5 nM.

In the case of O=C(Nc1ccc(C(=O)N2CCNCC2)cc1)Nc1ccc(-c2nc(N3CCOCC3)nc(N3C4CCC3COC4)n2)cc1 [Example 756, 1-{4-[4-morpholin-4-yl-6-(3-oxa-8-azabicyclo[3.2.1]oct-8-yl)-1,3,5-triazin-2-yl]phenyl}-3-[4-(piperazin-1-ylcarbonyl)phenyl]urea], the IC50 [1] is reported as 0.2 nM, the IC50 [2, 6] is reported as < 3 nM and the IC50 ([3]; PC3-mm2 cells) is reported as 12 nM. The IC50 [4] was 0.5 nM and the IC50 [5] was 7 nM.

CC(C)N1CCN(C(=O)c2ccc(NC(=O)Nc3ccc(-c4nc(O[C@H]5CCOC5)nc(N5CCOCC5)n4)cc3)cc2)CC1 [Example 522, 1-(4-{[4-(1-methylethyl)piperazin-1-yl]carbonyl}phenyl)-3-(4-{4-morpholin-4-yl-6-[(3S)-tetrahydrofuran-3-yloxy]-1,3,5-triazin-2-yl}phenyl)urea] was tested, and the IC50 [1] was 1.06 nM, the IC50 ([2]; 72 h, MDA-MB-361 cells) was 3 nM and the IC50 ([3]; PC3-mm2 cells) was 11 nM. The IC50 [4] was 1.4 nM and the IC50 [5] was 7.5 nM.

O=C(Nc1ccc(C(=O)N2CCNCC2)cc1)Nc1ccc(-c2nc(N3CCOCC3)nc(N3C4CCCC3COC4)n2)cc1 [Example 793, 1-{4-[4-morpholin-4-yl-6-(3-oxa-9-azabicyclo[3.3.1]non-9-yl)-1,3,5-triazin-2-yl]phenyl}-3-[4-(piperazin-1-ylcarbonyl)phenyl]urea] was tested, and the IC50 [1] was 0.42 nM, the IC50 [2, 6] was 2 nM and the IC50 ([3]; PC3-mm2 cells) was 26 nM. It also gave an IC50 [4] of 1 nM and an IC50 [5] of 15 nM.

Compound C[C@H]1COCCN1c1nc(-c2ccc(NC(=O)Nc3ccc(C(=O)N4CCCCC4)cc3)cc2)nc(N2CCOC[C@@H]2C)n1 [Example 637, 1-(4-{4,6-bis[(3S)-3-methylmorpholin-4-yl]-1,3,5-triazin-2-yl}phenyl)-3-[4-(piperidin-1-ylcarbonyl)phenyl]urea] has an IC50 [1] of 4 nM, an IC50 [2, 6] of 26 nM and an IC50 ([3]; PC3-mm2 cells) of 62 nM. The IC50 [4] was 21.5 nM and the IC50 [5] was 190 nM.
